# Data taken from patent US20040161794A1 (The General Hospital Corporation, priority 2002, published 2004).
# Key:
# PC12 cells = conditions: added to the culture media of PC12 cells; cited from earlier work
# rat hypothalamic tissue = conditions: injected intravenously or included in the in vitro incubation of rat hypothalamic tissue; cited from earlier work
# [1] = system: vascular rings from rat pulmonary artery and aorta; conditions: in vitro; cited from earlier work
# cultured rat myocytes = conditions: cited from earlier work
# Na^+ pump = molecular target: T1, Na^+ pump (Homo sapiens, UniProt P05023); assay: Inhibition of Na+ pump activity (active Rb+ uptake) in human erythrocytes; type: cell-based; conditions: 1 mM, standard
# T1 construct: measuring active ^86Rb^+(K^+ analogue) transport into human erythrocytes; endogenous in cells; host or cells: human erythrocytes
# Method: After purifying the conditioned medium by reverse-phase column chromatography (Sep-Pak, Waters), the resulting sample was assayed using the ^86Rb uptake assay to determine a change in inhibition as previously described in Carilli et al., J. Biol. Chem., 260:1027-1031 (1985).
# PC12 cells are studied for the presence of the genes of interest, then the release of inhibitor from these cells is confirmed using the method of Komiyama (Komiyama et al., J. Hypertens., 19:229-236 (2001)). Collected supernatants are acidified to dissociate OLC from putative carrier proteins, and purified using Sep-Pak C18 cartridges eluted with acetonitrile.
compound,measurement,setting,value
CC(=O)[C@H]1CC[C@H]2[C@@H]3CCC4=CC(=O)CC[C@]4(C)[C@H]3CC[C@]12C [progesterone],amount of OLC release into culture supernatants,PC12 cells,augmented in a dose-dependent manner
CC[C@H](C)[C@@H]1NC(=O)[C@H](CCCNC(=N)N)NC(=O)[C@H](CC(=O)O)NC(=O)[C@H](CCSC)NC(=O)[C@H](CCCNC(=N)N)NC(=O)CNC(=O)CNC(=O)[C@H](Cc2ccccc2)NC(=O)[C@@H](NC(=O)[C@H](CO)NC(=O)[C@H](CO)NC(=O)[C@H](CCCNC(=N)N)NC(=O)[C@H](CCCNC(=N)N)NC(=O)[C@H](CC(C)C)NC(=O)[C@@H](N)CO)CSSC[C@@H](C(=O)N[C@@H](CC(N)=O)C(=O)N[C@@H](CO)C(=O)N[C@@H](Cc2ccccc2)C(=O)N[C@@H](CCCNC(=N)N)C(=O)N[C@@H](Cc2ccc(O)cc2)C(=O)O)NC(=O)CNC(=O)[C@H](CC(C)C)NC(=O)CNC(=O)[C@H](CO)NC(=O)[C@H](CCC(N)=O)NC(=O)[C@H](C)NC(=O)CNC1=O [atrial natriuretic peptide],"release of the Na+,K+-ATPase inhibitor",rat hypothalamic tissue,decreased the release
C[C@@H]1O[C@@H](O[C@H]2C[C@@H](O)[C@]3(CO)[C@H]4[C@H](O)C[C@]5(C)[C@@H](C6=CC(=O)OC6)CC[C@]5(O)[C@@H]4CC[C@]3(O)C2)[C@H](O)[C@H](O)[C@H]1O [ouabain],effect on isolated vascular rings,[1],unaffected by Oua except at toxic concentrations
same,toxicity at the same intracellular Ca++ concentration,cultured rat myocytes,toxic
same,inhibition of active Na+ transport,Na^+ pump,Complete inhibition
